The subject of this experiment is Kibdelosporangium philippinensis (cultures A80407 and A80407.4). Nature of the experiment: Resistance to antibiotics of the producing cultures, antibiotic sensitivity discs on seeded ISP No. 2 agar. Conditions: both cultures.

On to `CC(=O)OCC1=C(C(=O)O)N2C(=O)[C@@H](NC(=O)Cc3cccs3)[C@H]2SC1` [cephalothin], for which the Resistance to antibiotics entry (30 μg) is “resistant”. On the same count and under the same terms, the value for `O=C(N[C@H](CO)[C@H](O)c1ccc([N+](=O)[O-])cc1)C(Cl)Cl` [chloramphenicol] was “sensitive”. As for `CC[C@H]1OC(=O)[C@H](C)[C@@H](O[C@H]2C[C@@](C)(OC)[C@@H](O)[C@H](C)O2)[C@H](C)[C@@H](O[C@@H]2O[C@H](C)C[C@H](N(C)C)[C@H]2O)[C@](C)(O)C[C@@H](C)C(=O)[C@H](C)[C@@H](O)[C@]1(C)O` [erythromycin], for the setting “15 μg”, the Resistance to antibiotics result is given as “sensitive”. As to `CCC[C@@H]1C[C@@H](C(=O)N[C@@H]([C@H]2O[C@H](SC)[C@H](O)[C@@H](O)[C@H]2O)[C@@H](C)O)N(C)C1` [lincomycin], where the note is “2 μg”, the Resistance to antibiotics entry is “resistant”.

As to `C1N2CN3CN1CN(C2)C3` [mandelamine], where the note is “3 μg”, the Resistance to antibiotics entry is listed as “sensitive”. `CCn1cc(C(=O)O)c(=O)c2ccc(C)nc21` [nalidixic acid]: under “30 μg”, the Resistance to antibiotics entry is reported as “resistant”. The same measure, in the same setting: the value for `NC[C@@H]1O[C@H](O[C@H]2[C@@H](O)[C@H](O[C@@H]3[C@@H](O)[C@H](N)C[C@H](N)[C@H]3O[C@H]3O[C@H](CN)[C@@H](O)[C@H](O)[C@H]3N)O[C@@H]2CO)[C@H](N)[C@@H](O)[C@@H]1O` [neomycin] was “sensitive”; that for `CO[C@@H]1[C@@H](OC(N)=O)[C@@H](O)[C@H](Oc2ccc3c(O)c(NC(=O)c4ccc(O)c(CC=C(C)C)c4)c(=O)oc3c2C)OC1(C)C` [novobiocin] was “sensitive”. Take `CC1(C)S[C@@H]2[C@H](NC(=O)Cc3ccccc3)C(=O)N2[C@H]1C(=O)O` [penicillin G]: the Resistance to antibiotics entry (10 units) is on record as “resistant”. Take `CO[C@H]1/C=C/O[C@@]2(C)Oc3c(C)c(O)c4c(O)c(c(/C=N/N5CCN(C)CC5)c(O)c4c3C2=O)NC(=O)/C(C)=C\C=C\[C@H](C)[C@H](O)[C@@H](C)[C@@H](O)[C@@H](C)[C@H](OC(C)=O)[C@@H]1C` [rifampin]: the Resistance to antibiotics result (5 μg) was “sensitive”.

As for `Nc1ccc(S(=O)(=O)Nc2ncccn2)cc1` [sulfadiazine], the Resistance to antibiotics entry (300 units) was “resistant”. Turning to `CN(C)C1C(=O)C(C(N)=O)=C(O)C2(O)C(=O)C3=C(O)c4c(O)cccc4C(C)(O)C3CC12` (stereo not drawn) [tetracycline], the Resistance to antibiotics entry (10 μg) was “sensitive”.

Turning to `NC[C@H]1O[C@H](O[C@H]2[C@H](O)[C@@H](O[C@H]3O[C@H](CO)[C@@H](O)[C@H](N)[C@H]3O)[C@H](N)C[C@@H]2N)[C@H](N)C[C@@H]1O` [tobramycin], under “10 μg”, the Resistance to antibiotics entry is “resistant”.

For the compound `COc1cc(Cc2cnc(N)nc2N)cc(OC)c1OC` [trimethoprim], the Resistance to antibiotics result (5 μg) was “resistant”.

Turning to `CN[C@H](CC(C)C)C(=O)N[C@H]1C(=O)N[C@@H](CC(N)=O)C(=O)N[C@H]2C(=O)N[C@H]3C(=O)N[C@H](C(=O)N[C@H](C(=O)O)c4cc(O)cc(O)c4-c4cc3ccc4O)[C@H](O)c3ccc(c(Cl)c3)Oc3cc2cc(c3O[C@@H]2O[C@H](CO)[C@@H](O)[C@H](O)[C@H]2O[C@H]2C[C@](C)(N)[C@H](O)[C@H](C)O2)Oc2ccc(cc2Cl)[C@H]1O` [vancomycin], the Resistance to antibiotics result (30 μg) was “resistant”. With gentamycin, the Resistance to antibiotics result (10 μg) is “sensitive”. Regarding oleandomycin, for the setting “15 μg”, the Resistance to antibiotics entry is “resistant”. As to polymixin B, for the setting “300 units”, the Resistance to antibiotics entry is “resistant”.

The record behind these values is patent US5213797A, “A80407 antibiotics” (Eli Lilly and Company, priority 1990, dated 1993).
